From patent publication US20220167627A1, “Microbial preparation of bacillus” (priority 2020, published 2022)

How the values were obtained:
rice seedlings = assay: IAA sensitivity test on rice seedlings; type: in vivo
Experimental: Taking rice and lettuce for example, IAA sensitivity of the microbial preparation is tested in steps of: disinfecting and germinating rice seedlings; putting the rice seedlings in a sterilized Petri dish in which a filter paper is disposed; […]; moving the sterilized Petri dish into a plant growth box for 4 days; measuring an average height of buds of the rice seedlings and an average height of roots of the rice seedlings;

lettuce = assay: IAA sensitivity test on lettuce; type: in vivo
Experimental: Taking rice and lettuce for example, IAA sensitivity of the microbial preparation is tested in steps of: disinfecting seeds of the lettuce with 5% sodium hypochlorite and putting the seeds of the lettuce in another sterilized Petri dish in which a filter paper is disposed; adding 3 mL of 0.03 μM, 3 μM, 30 μM, and 300 μM of IAA aqueous solutions respectively; moving another sterilized Petri dish into another plant growth box for 3 days; and measuring a germination rate and a height of each lettuce and a length of a root of each lettuce.

What does the source list for `O=C(O)Cc1c[nH]c2ccccc12` [IAA]?
growth of the roots of the rice seedlings (rice seedlings; IAA 0.03 μM to 30 μM, 4 days, FIG. 1): does not promote a growth of the roots; growth of the roots of the rice seedlings (rice seedlings; IAA 300 μM, 4 days, FIG. 1): limited; growth of the roots of the rice seedlings (rice seedlings; IAA within 0.00003 μM to 0.003 μM): do not grow obviously; growth of the lettuce seedlings (lettuce; IAA 0.03 μM (lowest concentration), 3 days): reduces a growth of the lettuce seedlings; height of lettuce sprouts (lettuce; IAA 0.03 μM, 3 days (no IAA: 5.3 mm)): 3.5 mm; length of lettuce roots (lettuce; IAA 0.03 μM, 3 days (no IAA: 14.8 mm)): 8.8 mm; germination rate of seeds of the lettuce (lettuce; IAA 300 μM, 3 days (no IAA: 78%)): 13%
